Literature values in patent US20110250132A1, “LIPOIC ACID METABOLITE: USEFUL FOR DRUG CARRIER, NANOPARTICLE CONJUGATE, IMAGING AND HYPERTHERMIA THERAPY” (priority 2010, published 2011).
Blank lines part the entries; values can stand above or below the molecule they belong to.

Assays:
[1] = reduced form with two —SH groups
[2] = accumulates in all neuronal cell types
[3] = system: insulin-resistant rat skeletal muscle
cataracts = conditions: rats

oxidation potential [1]: −0.29 v
SMILES: O=C(O)CCCC[C@@H](S)CCS (racemic) [DHLA, dihydrolipoic acid]

blood-brain barrier crossing [2]: readily crosses the blood-brain barrier
SMILES: O=C(O)CCCCC1CCSS1 (stereo not drawn) [Alpha-lipoic acid]
preventing iron accumulation (lens epithelial cells): beneficial effects

SMILES: O=C(O)CCCC[C@@H]1CCSS1 [R-alpha-lipoic acid]
enhancing insulin-stimulated glucose transport and metabolism [3]: more effective than S-alpha-lipoic acid
preventing cataracts (cataracts): more effective than racemic alpha-lipoic acid and S-alpha-lipoic acid
